Experimental data as given in the NIST ThermoML archive (doi:10.1021/je049562e).

Settings: Liquid, Twin ebulliometer

CCCCCCC [heptane]
Settings	vapor or sublimation pressure [kPa]
372.08 K	102.9
374.5 K	110.39
377.68 K	120.89
384.39 K	145.56
389.41 K	166.41
393.58 K	185.5
396.7 K	200.79
401.26 K	224.89
405.44 K	248.92
409.66 K	275.09
413.8 K	302.76
419.17 K	341.76
423.85 K	378.8
428.69 K	420.15
433.81 K	467.65
438.86 K	518.27
443.5 K	568.27
447.95 K	619.76
451.8 K	666.97
456.35 K	726.16
459.78 K	773.29
465.07 K	850.62
469.84 K	925.23
473.39 K	983.9
476.11 K	1030.6
479.57 K	1092.4
483.67 K	1169.4
487.36 K	1242.3
490.81 K	1313.4
494.11 K	1384.2
496.77 K	1443.4
500.01 K	1518.2
503.59 K	1604.1
507.39 K	1699.5
510.95 K	1793
515.27 K	1911.6
518.99 K	2019.1
522.22 K	2116.1
525.53 K	2219.7
528.3 K	2309.8
531.47 K	2416.5
534.57 K	2525.7
537.2 K	2621.8
